Reference: patent publication US6339716B1, “Method for determining viability of a myocardial segment” (Bioenergy Inc., priority 1999, dated 2002)

Test system: patients suspected of having stunned or hibernating myocardium
Assay: Dobutamine echocardiography, regional wall motion during D-Ribose or placebo infusion (randomized, double-blind, crossover clinical trial)
Type: in vivo
Details: during low-dose dobutamine infusion (5μ/kg/minute); D-Ribose 10% in water iv at 180 mg/kg/hour; 25 patients, 16 left ventricular segments each
Procedure: A single-center, randomized, double-blind placebo-controlled clinical trial was carried out to evaluate the safety and efficacy of D-Ribose on myocardial wall motion during echocardiographic examination in patients suspected of having stunned or hibernating myocardium. Patients were randomized into placebo and ribose groups according to a computer generated randomization schedule. The identity of the contents was blinded to the investigator. Patients were identified by initials. The selected study population was comprised of 25 patients (22 men and 3 women) with a mean age of 57+/−11 years. All had reduced left ventricular systolic function (mean ejection fraction 30+/−8%, range 18 to 48%). Twenty-two patients (88%) had prior myocardial infarction and only one subject was evaluated after recent (<4 weeks) infarction. […] Post-infusion images were recorded approximately eight minutes after discontinuation of dobutamine. […] Parasternal long and short-axis and apical two and four-chamber images were recorded on 0.5 inch videotape and digitally stored on floppy discs using a Nova MicroSonics DCR or Colorvue system (Mahwah, N.J.). […]

With `O=C[C@H](O)[C@H](O)[C@H](O)CO` [D-Ribose] the “segments in which wall motion improved” value was 65 segments.
